Source: patent USRE39591E1, “6-O-substituted ketolides having antibacterial activity” (Abbott Laboratories, priority 1996, dated 2007)
Values after ≈ are worked out from the molar mass of the structure shown.

Test system: up to 32 different microorganisms
Assay: in vitro antibacterial activity (MIC), agar dilution on Brain Heart Infusion (BHI) agar with Steers replicator
Type: cell-based
Conditions: unit assumed
Experimental: Representative compounds of the present invention were assayed in vitro for antibacterial activity as follows: Twelve petri dishes containing successive aqueous dilutions of the test compound mixed with 10 mL of sterilized Brain Heart Infusion (BHI) agar (Difco 0148-01-5) were prepared. Each plate was inoculated with 1:100 (or 1:10 for slow-growing strains, such as Micrococcus and Streptococcus) dilutions of up to 32 different microorganisms, using a Steers replicator block. The inoculated plates were incubated at 35°-37° C. for 20 to 24 hours. In addition, a control plate, using BHI agar containing no test compound, was prepared and incubated at the beginning and end of each test.
An additional plate containing a compound having known susceptibility patterns for the organisms being tested and belonging to the same antibiotic class as the test compound was also prepared and incubated as a further control, as well as to provide test-to-test comparability. Erythromycin A was used for this purpose.
After incubation, each plate was visually inspected. The minimum inhibitory concentration (MIC) was defined as the lowest concentration of drug yielding no growth, a slight haze, or sparsely isolated colonies on the inoculum spot as compared to the growth control.

CCC1OC(=O)C(C)C(=O)C(C)C(OC2OC(C)CC(N(C)C)C2O)C(C)(OCC=Cc2cnc3ccc(F)cc3c2)CC(C)C(=O)C(C)C2NC(=O)OC12C (stereo not drawn) [Example 215, R is —CH2CH═CH-(6-fluoro-3-quinolyl)]
MIC (organism code AA): 0.05 µg/mL (≈ 0.0638 µM) | MIC (organism code BB): 0.1 µg/mL (≈ 0.128 µM) | MIC (organism code CC): > 100 µg/mL | MIC (organism code DD): 0.1 µg/mL (≈ 0.128 µM) | MIC (organism code EE): 0.1 µg/mL (≈ 0.128 µM) | MIC (organism code FF): 0.1 µg/mL (≈ 0.128 µM) | MIC (organism code GG): > 100 µg/mL | MIC (organism code HH): 0.1 µg/mL (≈ 0.128 µM) | MIC (organism code II): 0.05 µg/mL (≈ 0.0638 µM) | MIC (organism code JJ): 0.01 µg/mL (≈ 0.0128 µM) | MIC (organism code KK): 0.01 µg/mL (≈ 0.0128 µM) | MIC (organism code LL): 0.01 µg/mL (≈ 0.0128 µM) | MIC (organism code MM): 0.78 µg/mL (≈ 0.995 µM) | MIC (organism code NN): 0.1 µg/mL (≈ 0.128 µM) | MIC (organism code OO): 0.01 µg/mL (≈ 0.0128 µM) | MIC (organism code PP): 0.2 µg/mL (≈ 0.255 µM) | MIC (organism code QQ): 25 µg/mL (≈ 31.9 µM) | MIC (organism code RR): 0.2 µg/mL (≈ 0.255 µM) | MIC (organism code SS): > 100 µg/mL | MIC (organism code TT): > 100 µg/mL | MIC (organism code UU): 0.78 µg/mL (≈ 0.995 µM) | MIC (organism code VV): 0.02 µg/mL (≈ 0.0255 µM) | MIC (organism code WW): 2 µg/mL (≈ 2.55 µM) | MIC (organism code XX): 0.015 µg/mL (≈ 0.0191 µM) | MIC (organism code YY): ≤ 0.004 µg/mL | MIC (organism code ZZ): 16 µg/mL (≈ 20.4 µM) | MIC (organism code ZZA): 0.25 µg/mL (≈ 0.319 µM)

CCC1OC(=O)C(C)C(=O)C(C)C(OC2OC(C)CC(N(C)C)C2O)C(C)(OCc2cccc(I)c2)CC(C)C(=O)C(C)C2NC(=O)OC12C (stereo not drawn) [Example 285, Compound of Formula (IX): L is CO, T is NH2, R is —CH2-(3-iodophenyl)]
MIC (organism code AA): 3.1 µg/mL | MIC (organism code BB): 3.1 µg/mL | MIC (organism code CC): > 100 µg/mL | MIC (organism code DD): 3.1 µg/mL | MIC (organism code EE): 3.1 µg/mL | MIC (organism code FF): 3.1 µg/mL | MIC (organism code GG): > 100 µg/mL | MIC (organism code HH): 3.1 µg/mL | MIC (organism code II): 0.39 µg/mL | MIC (organism code JJ): 0.2 µg/mL | MIC (organism code KK): 0.2 µg/mL | MIC (organism code LL): 0.05 µg/mL | MIC (organism code MM): 100 µg/mL | MIC (organism code NN): 0.78 µg/mL | MIC (organism code OO): 0.39 µg/mL | MIC (organism code PP): 0.39 µg/mL | MIC (organism code QQ): > 100 µg/mL | MIC (organism code RR): 12.5 µg/mL | MIC (organism code SS): > 100 µg/mL | MIC (organism code TT): > 100 µg/mL | MIC (organism code UU): 6.2 µg/mL | MIC (organism code VV): 1.56 µg/mL | MIC (organism code WW): > 128 µg/mL | MIC (organism code XX): 0.25 µg/mL | MIC (organism code YY): 0.25 µg/mL | MIC (organism code ZZ): 64 µg/mL | MIC (organism code ZZA): 1 µg/mL

CCC1OC(=O)C(C)C(=O)C(C)C(OC2OC(C)CC(N(C)C)C2O)C(C)(OCC=Cc2ccc(-c3ccon3)s2)CC(C)C(=O)C(C)C2NC(=O)OC12C (stereo not drawn) [Example 292, Compound of Formula (IX): L is CO, T is NH, R is —CH2CH═CH-(5-(3-ixoxazolyl)-2-thiophenyl)]
MIC (organism code AA): 0.1 µg/mL | MIC (organism code BB): 0.1 µg/mL | MIC (organism code CC): > 100 µg/mL | MIC (organism code DD): 0.1 µg/mL | MIC (organism code EE): 0.1 µg/mL | MIC (organism code FF): 0.1 µg/mL | MIC (organism code GG): > 100 µg/mL | MIC (organism code HH): 0.05 µg/mL | MIC (organism code II): 0.02 µg/mL | MIC (organism code JJ): ≤ 0.005 µg/mL | MIC (organism code KK): 0.02 µg/mL | MIC (organism code LL): 0.01 µg/mL | MIC (organism code MM): 12.5 µg/mL | MIC (organism code NN): 0.05 µg/mL | MIC (organism code OO): 0.02 µg/mL | MIC (organism code PP): 0.1 µg/mL | MIC (organism code QQ): 50 µg/mL | MIC (organism code RR): 0.2 µg/mL | MIC (organism code SS): 100 µg/mL | MIC (organism code TT): > 100 µg/mL | MIC (organism code UU): 0.78 µg/mL | MIC (organism code VV): 0.02 µg/mL | MIC (organism code WW): 2 µg/mL | MIC (organism code XX): 0.03 µg/mL | MIC (organism code YY): 0.03 µg/mL | MIC (organism code ZZ): 16 µg/mL | MIC (organism code ZZA): 0.25 µg/mL

CCC1OC(=O)C(C)C(=O)C(C)C(OC2OC(C)CC(N(C)C)C2O)C(C)(OCC=Cc2cccc3cccnc23)CC(C)C(=O)C(C)C2NC(=O)OC12C (stereo not drawn) [Example 189, R is —CH2CH-(8-quinolyl)]
MIC (Candida albicans CCH 442 (code TT)): > 100 µg/mL | MIC (Enterococcus faecism ATCC 8043 (code II)): 0.05 µg/mL (≈ 0.0653 µM) | MIC (Escherichia coli DC-2 (code SS)): 50 µg/mL (≈ 65.3 µM) | MIC (Escherichia coli JUHL (code QQ)): 100 µg/mL (≈ 131 µM) | MIC (Escherichia coli SS (code RR)): 0.39 µg/mL (≈ 0.509 µM) | MIC (Haemophilis influenzae DILL AMP R (code WW)): 8 µg/mL (≈ 10.4 µM) | MIC (Micrococcus luteus ATCC 4698 (code PP)): 0.1 µg/mL (≈ 0.131 µM) | MIC (Micrococcus luteus ATCC 9341 (code OO)): 0.02 µg/mL (≈ 0.0261 µM) | MIC (Mycobacterium smegmatis ATCC 114 (code UU)): 0.78 µg/mL (≈ 1.02 µM) | MIC (Nocardia Asteroides ATCC9970 (code VV)): 0.05 µg/mL (≈ 0.0653 µM) | MIC (Staphylococcus aureus 1775 (code GG)): > 100 µg/mL | MIC (Staphylococcus aureus A5177 (code BB)): 0.1 µg/mL (≈ 0.131 µM) | MIC (Staphylococcus aureus A-5278 (code CC)): > 100 µg/mL | MIC (Staphylococcus aureus ATCC 6538P (code AA)): 0.2 µg/mL (≈ 0.261 µM) | MIC (Staphylococcus aureus CMX 553 (code FF)): 0.1 µg/mL (≈ 0.131 µM) | MIC (Staphylococcus aureus CMX 642A (code DD)): 0.2 µg/mL (≈ 0.261 µM) | MIC (Staphylococcus aureus NCTC10649M (code EE)): 0.1 µg/mL (≈ 0.131 µM) | MIC (Staphylococcus epidermidis 3519 (code HH)): 0.2 µg/mL (≈ 0.261 µM) | MIC (Streptococcus Pneumonia 5649 (code ZZA)): 0.5 µg/mL (≈ 0.653 µM) | MIC (Streptococcus Pneumonia 5979 (code ZZ)): > 32 µg/mL | MIC (Streptococcus Pneumonia ATCC6303 (code XX)): 0.125 µg/mL (≈ 0.163 µM) | MIC (Streptococcus Pneumonia GYR 1171 (code YY)): 0.06 µg/mL (≈ 0.0783 µM) | MIC (Streptococcus agalactiae CMX 508 (code KK)): ≤ 0.005 µg/mL | MIC (Streptococcus bovis A-5169 (code JJ)): ≤ 0.005 µg/mL | MIC (Streptococcus pyogenes 930 (code MM)): 50 µg/mL (≈ 65.3 µM) | MIC (Streptococcus pyogenes EES61 (code LL)): ≤ 0.005 µg/mL | MIC (Streptococcus pyogenes PIU 2548 (code NN)): 0.2 µg/mL (≈ 0.261 µM)
